Assay results taken from patent publication US10980892B2, “Methods for the treatment of leptomeningeal carcinomatosis” (Angiochem Inc., priority 2015, dated 2021).

Key:
[1] = biological target: T1, LRP receptor (Homo sapiens, UniProt Q07954); assay: Inhibition of uptake of Angiopep conjugates into cells; format: cell-based; conditions: Angiopep-2 10 or 100 μM
T1 construct: The LRP receptor is expressed on the surface of cells; endogenous in cells
Description: (§1) The methods of the invention may be especially useful in treating cancers having cells that express low density lipoprotein-related protein (LRP) receptor. The LRP receptor is expressed on the surface of cells, and is capable of binding to various substrates including aprotinin. The polypeptides described herein were designed based on the consensus kunitz-domain sequences that act as LRP receptor ligands (see, e.g., PCT Publication No. WO 2004/060403). Uptake of the conjugates including Angiopep-1 or Angiopep-2 is inhibited by LRP ligands, thus indicating involvement of LRP in this process.

[2] = system: LRP receptor; assay: Inhibition of brain uptake of an Angiopep conjugate by LRP ligands
Description: as §1

[3] = system: leptomeningeal carcinomatosis (LC); assay: Treatment of LC in breast cancer subjects, CNS RECIST brain parenchymal tumor response; format: in vivo, human; conditions: 600 mg/m^2 iv tri-weekly
Description: Twenty-eight subjects diagnosed with LC were administered 600 mg/m^2 of ANG1005 intravenously on a tri-weekly schedule. The subjects received between one and nine cycles of ANG1005.
The results of the treatment of the subjects according to CNS Response Evaluation Criteria in Solid Tumors (RECIST) based on brain parenchymal tumor response is shown in Table 2.

[4] = system: leptomeningeal carcinomatosis; assay: Treatment of individual LC subjects with ANG1005 (Subjects 2, 3, 4, 8); format: in vivo, human
Description: Subject 2 presented at the time of treatment with ANG1005 with an active tumor extending from the deep portion of the surgical cavity to the right tentorial surface and along the lateral right temporal occipital dural surface. Subject 2 started treatment with ANG1005 in October 2014 and received 7 cycles (once every three weeks). Treatment was terminated due to clinical disease progression.
Subject 3 presented at the time of treatment with ANG1005 with numerous (>10) brain metastases all of which had increased in size despite prior treatment. Extensive scattered osseous metastatic disease in head/neck. After presenting with a numb chin (left trigeminal cranial nerve deficits), Subject 3 was also found to have leptomeningeal disease. Subject 3 started treatment with ANG1005 in September 2014 and received 5 cycles (once every three weeks). Treatment was terminated due to adverse event (pneumonia).
Subject 4 is a person diagnosed in October 2011 with HER2+/ER−/PgR− ductal carcinoma in situ. In November 2012, Subject 4 was diagnosed with brain metastases, and in March 2015 the brain metastases relapsed with leptomeningeal carcinomatosis. Subject 4 previously received several courses of therapy including carboplatin from October to November 2011, denosumab from November 2011 to November 2012, paclitaxel from December 2011 to March 2012, WBRT, transtuzumab from May 2012 to November 2012, and kadcyla from April 2013 to December 2014. Subject 4 presented at the time of treatment with ANG1005 with parenchymal metastases present in the cerebellum and widespread LC of the cerebellum and cerebral hemispheres. In addition, Subject 4 presented with mild ventricular enlargement with compression upon the fourth ventricle and cutflow tracts. Subject 4 started treatment with ANG1005 in March 2015 and received 8 cycles (once every three weeks). Subject withdrew from treatment due to low performance scores.
Subject 8 started treatment with ANG1005 in April 2015 and received 2 cycles (once every three weeks). Subject 8 terminated from treatment in July 2015 due to clinical progression.

[5] = system: leptomeningeal carcinomatosis; assay: Kaplan-Meier estimates of survival for subjects with LC; format: in vivo, human; conditions: compared to historical median overall survival of 3-6 months following aggressive treatment
Description: The Kaplan-Meier method was used to estimate the overall survival of LC subjects treated with ANG1005.

T1 sequence (Q07954 20-4544): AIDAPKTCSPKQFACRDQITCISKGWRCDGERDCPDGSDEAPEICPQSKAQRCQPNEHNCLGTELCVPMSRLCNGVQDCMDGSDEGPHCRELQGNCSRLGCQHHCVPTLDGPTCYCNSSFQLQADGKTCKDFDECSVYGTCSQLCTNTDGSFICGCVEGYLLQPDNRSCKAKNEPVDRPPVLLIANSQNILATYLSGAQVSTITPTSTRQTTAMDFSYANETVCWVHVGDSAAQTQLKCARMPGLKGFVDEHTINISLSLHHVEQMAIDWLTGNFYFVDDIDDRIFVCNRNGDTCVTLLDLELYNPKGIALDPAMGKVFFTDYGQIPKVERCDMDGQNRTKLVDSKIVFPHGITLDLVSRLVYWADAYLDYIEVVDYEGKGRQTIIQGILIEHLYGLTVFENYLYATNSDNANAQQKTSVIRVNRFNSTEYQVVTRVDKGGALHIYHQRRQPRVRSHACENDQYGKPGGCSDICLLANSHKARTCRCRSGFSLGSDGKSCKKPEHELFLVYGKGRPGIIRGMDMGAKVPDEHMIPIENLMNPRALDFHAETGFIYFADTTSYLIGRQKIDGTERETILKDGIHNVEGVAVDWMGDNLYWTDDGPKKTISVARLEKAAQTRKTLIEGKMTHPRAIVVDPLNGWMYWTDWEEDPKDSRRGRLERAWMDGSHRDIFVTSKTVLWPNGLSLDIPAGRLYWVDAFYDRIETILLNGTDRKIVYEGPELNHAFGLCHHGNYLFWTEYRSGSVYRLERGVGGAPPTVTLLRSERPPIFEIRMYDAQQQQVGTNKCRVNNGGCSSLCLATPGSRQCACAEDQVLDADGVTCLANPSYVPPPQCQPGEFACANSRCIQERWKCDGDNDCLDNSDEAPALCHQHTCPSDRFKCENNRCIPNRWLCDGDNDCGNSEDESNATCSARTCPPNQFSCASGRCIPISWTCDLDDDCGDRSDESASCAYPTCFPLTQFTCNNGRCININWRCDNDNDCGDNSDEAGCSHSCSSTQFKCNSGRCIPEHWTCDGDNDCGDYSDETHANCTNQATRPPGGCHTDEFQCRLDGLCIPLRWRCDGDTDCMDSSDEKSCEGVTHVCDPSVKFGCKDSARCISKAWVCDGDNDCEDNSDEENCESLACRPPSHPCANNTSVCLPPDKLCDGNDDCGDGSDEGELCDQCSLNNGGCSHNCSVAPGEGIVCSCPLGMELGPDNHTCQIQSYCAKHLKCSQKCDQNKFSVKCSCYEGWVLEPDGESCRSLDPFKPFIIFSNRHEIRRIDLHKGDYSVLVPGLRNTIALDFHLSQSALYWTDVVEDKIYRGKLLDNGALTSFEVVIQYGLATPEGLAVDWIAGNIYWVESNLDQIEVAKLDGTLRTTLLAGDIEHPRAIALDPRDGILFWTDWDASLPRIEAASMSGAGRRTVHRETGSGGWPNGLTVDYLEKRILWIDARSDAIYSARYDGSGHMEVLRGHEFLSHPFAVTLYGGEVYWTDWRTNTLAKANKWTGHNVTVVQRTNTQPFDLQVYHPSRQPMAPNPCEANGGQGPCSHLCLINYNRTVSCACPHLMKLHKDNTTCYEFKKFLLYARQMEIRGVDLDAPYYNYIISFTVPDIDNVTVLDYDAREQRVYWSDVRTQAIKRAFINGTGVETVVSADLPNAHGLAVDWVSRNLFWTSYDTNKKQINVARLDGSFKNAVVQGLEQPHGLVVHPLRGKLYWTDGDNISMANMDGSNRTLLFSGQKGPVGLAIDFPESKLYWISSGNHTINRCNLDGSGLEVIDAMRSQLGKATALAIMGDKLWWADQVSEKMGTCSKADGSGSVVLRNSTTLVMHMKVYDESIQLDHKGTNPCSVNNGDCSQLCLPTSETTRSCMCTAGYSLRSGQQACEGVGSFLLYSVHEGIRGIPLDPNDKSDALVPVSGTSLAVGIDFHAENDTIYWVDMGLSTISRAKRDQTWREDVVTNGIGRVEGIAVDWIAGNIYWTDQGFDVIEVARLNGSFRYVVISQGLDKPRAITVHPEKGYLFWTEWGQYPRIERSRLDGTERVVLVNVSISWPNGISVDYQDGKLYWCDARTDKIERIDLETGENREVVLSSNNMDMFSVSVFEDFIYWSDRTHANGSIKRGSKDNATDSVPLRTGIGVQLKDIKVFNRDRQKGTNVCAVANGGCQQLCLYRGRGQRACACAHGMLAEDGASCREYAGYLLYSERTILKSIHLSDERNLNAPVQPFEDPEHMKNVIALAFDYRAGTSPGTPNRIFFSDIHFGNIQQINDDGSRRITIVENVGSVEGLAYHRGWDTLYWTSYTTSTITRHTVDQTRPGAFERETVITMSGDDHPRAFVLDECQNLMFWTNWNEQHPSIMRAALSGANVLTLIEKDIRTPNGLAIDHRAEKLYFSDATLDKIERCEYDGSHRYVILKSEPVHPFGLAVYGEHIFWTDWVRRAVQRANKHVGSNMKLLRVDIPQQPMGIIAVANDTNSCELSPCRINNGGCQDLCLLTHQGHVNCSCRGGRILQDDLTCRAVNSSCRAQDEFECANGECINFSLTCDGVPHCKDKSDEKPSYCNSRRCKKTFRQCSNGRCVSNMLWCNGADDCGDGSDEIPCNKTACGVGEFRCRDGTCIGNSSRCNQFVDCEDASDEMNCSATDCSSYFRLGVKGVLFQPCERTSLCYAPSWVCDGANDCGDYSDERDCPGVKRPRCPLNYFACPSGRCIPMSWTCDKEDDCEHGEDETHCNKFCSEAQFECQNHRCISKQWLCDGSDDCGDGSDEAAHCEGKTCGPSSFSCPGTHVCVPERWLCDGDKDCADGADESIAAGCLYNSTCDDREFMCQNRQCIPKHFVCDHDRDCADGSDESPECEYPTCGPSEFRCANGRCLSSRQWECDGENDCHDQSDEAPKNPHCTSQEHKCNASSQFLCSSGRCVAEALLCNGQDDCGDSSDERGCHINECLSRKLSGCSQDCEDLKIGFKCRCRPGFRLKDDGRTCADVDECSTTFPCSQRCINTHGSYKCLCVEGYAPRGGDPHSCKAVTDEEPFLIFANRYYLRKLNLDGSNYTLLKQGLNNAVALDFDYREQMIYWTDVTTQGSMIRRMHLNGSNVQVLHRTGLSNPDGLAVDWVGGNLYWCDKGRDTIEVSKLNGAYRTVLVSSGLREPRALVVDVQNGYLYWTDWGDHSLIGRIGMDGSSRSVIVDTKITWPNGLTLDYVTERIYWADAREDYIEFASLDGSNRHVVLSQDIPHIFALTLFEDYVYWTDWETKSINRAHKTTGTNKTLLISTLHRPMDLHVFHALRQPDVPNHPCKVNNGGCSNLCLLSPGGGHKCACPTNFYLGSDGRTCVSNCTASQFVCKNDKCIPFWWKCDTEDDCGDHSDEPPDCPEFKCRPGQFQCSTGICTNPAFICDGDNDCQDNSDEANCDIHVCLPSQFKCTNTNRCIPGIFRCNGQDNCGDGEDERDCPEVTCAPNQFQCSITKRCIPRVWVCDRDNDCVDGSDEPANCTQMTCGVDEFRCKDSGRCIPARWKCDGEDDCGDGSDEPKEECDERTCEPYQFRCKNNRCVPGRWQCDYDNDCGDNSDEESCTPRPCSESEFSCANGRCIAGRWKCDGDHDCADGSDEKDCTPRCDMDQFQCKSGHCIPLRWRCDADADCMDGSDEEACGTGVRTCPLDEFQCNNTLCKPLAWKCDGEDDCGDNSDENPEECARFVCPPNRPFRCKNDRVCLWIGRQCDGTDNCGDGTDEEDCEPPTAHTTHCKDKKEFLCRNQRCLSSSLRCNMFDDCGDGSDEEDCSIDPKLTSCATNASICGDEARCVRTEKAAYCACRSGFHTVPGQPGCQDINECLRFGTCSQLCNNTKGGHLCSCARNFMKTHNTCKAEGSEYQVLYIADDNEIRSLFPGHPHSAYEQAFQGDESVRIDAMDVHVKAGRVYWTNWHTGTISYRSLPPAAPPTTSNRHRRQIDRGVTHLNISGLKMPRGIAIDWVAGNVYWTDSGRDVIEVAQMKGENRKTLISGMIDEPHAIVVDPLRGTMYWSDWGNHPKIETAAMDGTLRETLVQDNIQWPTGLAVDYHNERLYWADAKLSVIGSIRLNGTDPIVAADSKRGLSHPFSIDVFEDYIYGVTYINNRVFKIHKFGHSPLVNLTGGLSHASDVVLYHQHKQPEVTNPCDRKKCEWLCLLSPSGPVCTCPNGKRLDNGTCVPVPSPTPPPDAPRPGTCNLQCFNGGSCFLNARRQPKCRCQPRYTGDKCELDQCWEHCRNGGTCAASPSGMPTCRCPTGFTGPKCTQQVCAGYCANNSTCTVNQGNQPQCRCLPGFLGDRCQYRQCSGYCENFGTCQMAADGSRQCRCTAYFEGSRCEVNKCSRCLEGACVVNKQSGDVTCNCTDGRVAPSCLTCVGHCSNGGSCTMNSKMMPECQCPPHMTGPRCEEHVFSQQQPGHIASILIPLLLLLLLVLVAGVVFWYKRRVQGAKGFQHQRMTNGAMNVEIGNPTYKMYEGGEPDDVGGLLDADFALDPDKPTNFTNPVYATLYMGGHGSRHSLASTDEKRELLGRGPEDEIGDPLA

Compound: TFFYGGSRGKRNNFKTEEY [Angiopep-2]
- Effect on uptake of the conjugates into cells [1]: able to reduce uptake

Compound: RAP: LRP ligand
- Effect on brain uptake of an Angiopep conjugate ([2]; RAP 200 nM): capable of reducing brain uptake

Compound: aprotinin
- Effect on brain uptake of an Angiopep conjugate ([2]; aprotinin 10 μM): capable of reducing brain uptake

Compound: CC(=O)O[C@H]1C(=O)[C@@]2(C)[C@H]([C@H](OC(=O)c3ccccc3)[C@]3(O)C[C@H](OC(=O)C(OC(=O)CCC(=O)NCCCC[C@H](NN[C@@H](Cc4ccccc4)C(=O)C(=O)C(CC(N)=O)NC(=O)[C@H](CC(N)=O)NC(=O)[C@H](CCCNC(=N)N)NC(=O)[C@H](CCCCNC(=O)CCC(=O)O[C@@H](C(=O)O[C@H]4C[C@@]5(O)[C@@H](OC(=O)c6ccccc6)[C@@H]6[C@]7(OC(C)=O)CO[C@@H]7C[C@H](O)[C@@]6(C)C(=O)[C@H](OC(C)=O)C(=C4C)C5(C)C)[C@@H](NC(=O)c4ccccc4)c4ccccc4)NNCC(=O)C(=O)[C@H](CCCNC(=N)N)NC(=O)[C@H](CO)NC(=O)CNC(=O)CNC(=O)C(Cc4ccc(O)cc4)NC(=O)[C@H](Cc4ccccc4)NC(=O)C(Cc4ccccc4)NCC(=O)[C@H](NC(=O)CCC(=O)O[C@@H](C(=O)O[C@H]4C[C@@]5(O)[C@@H](OC(=O)c6ccccc6)[C@@H]6[C@]7(OC(C)=O)CO[C@@H]7C[C@H](O)[C@@]6(C)C(=O)[C@H](OC(C)=O)C(=C4C)C5(C)C)[C@@H](NC(=O)c4ccccc4)c4ccccc4)C(C)O)C(=O)N[C@H](C(=O)NC(CCC(=O)O)C(=O)N[C@@H](CCC(=O)O)C(=O)NC(C=O)Cc4ccc(O)cc4)[C@@H](C)O)[C@@H](NC(=O)c4ccccc4)c4ccccc4)C(C)=C1C3(C)C)[C@]1(OC(C)=O)CO[C@@H]1C[C@@H]2O (stereo partly shown) [ANG1005]
- Partial Response (PR), number of patients ([3]; All Patients (n = 23)): 5
- Partial Response (PR), percent of patients ([3]; All Patients (n = 23)): (22%)
- Patient Benefit (PR + SD), number of patients ([3]; All Patients (n = 23)): 17
- Progressive Disease, number of patients ([3]; All Patients (n = 23)): 6
- Progressive Disease, percent of patients ([3]; All Patients (n = 23)): (26%)
- Stable Disease (SD), number of patients ([3]; All Patients (n = 23)): 12
- Stable Disease (SD), percent of patients ([3]; All Patients (n = 23)): (52%)
- Partial Response (PR), number of patients ([3]; HER2+ (n = 15)): 4
- Partial Response (PR), percent of patients ([3]; HER2+ (n = 15)): (27%)
- Patient Benefit (PR + SD), number of patients ([3]; HER2+ (n = 15)): 12
- Progressive Disease, number of patients ([3]; HER2+ (n = 15)): 3
- Progressive Disease, percent of patients ([3]; HER2+ (n = 15)): (20%)
- Stable Disease (SD), number of patients ([3]; HER2+ (n = 15)): 8
- Stable Disease (SD), percent of patients ([3]; HER2+ (n = 15)): (53%)
- Partial Response (PR), number of patients ([3]; HER2− (n = 8)): 1
- Partial Response (PR), percent of patients ([3]; HER2− (n = 8)): (12.5%)
- Patient Benefit (PR + SD), number of patients ([3]; HER2− (n = 8)): 5
- Patient Benefit (PR + SD), percent of patients ([3]; HER2− (n = 8)): (62.5%)
- Progressive Disease, number of patients ([3]; HER2− (n = 8)): 3
- Progressive Disease, percent of patients ([3]; HER2− (n = 8)): (37.5%)
- Stable Disease (SD), number of patients ([3]; HER2− (n = 8)): 4
- Stable Disease (SD), percent of patients ([3]; HER2− (n = 8)): (50%)
- Response of leptomeningeal carcinomatosis ([4]; Subject 2, HER2+/ER−/PgR+, 7 cycles once every three weeks, dural lesion no longer apparent, leptomeningeal nodule decreasing in size): responded
- Response of leptomeningeal carcinomatosis ([4]; Subject 3, HER2+/ER−/PgR−, 5 cycles once every three weeks): improved both radiographically and clinically
- Adverse event causing treatment termination ([4]; Subject 3, after 5 cycles once every three weeks): pneumonia
- Response of leptomeningeal carcinomatosis ([4]; Subject 4, HER2+/ER−/PgR−, 8 cycles once every three weeks, diminished nodular leptomeningeal enhancement, decreased leptomeningeal tumor burden): responded
- Response of leptomeningeal carcinomatosis ([4]; Subject 8, HER2+/ER+/PgR−, 2 cycles once every three weeks, improvement in extensive LC in the cerebellum): responded
- Median overall survival (Kaplan-Meier estimate) [5]: increase median overall survival
